Experimental data as given in patent US20070299072A1, “KV1.5 POTASSIUM CHANNEL INHIBITORS” (Wyeth, priority 2006, published 2007).

Legend:
Assay type in all cases: cell-based
L-type calcium channels = test: FLIPR L-type Calcium Channel Assay (calcium influx in HL-1 cells after KCl); settings: read-out: L-type Ca2+ IC50
Summary of the method: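 HL-1 cardiomyocytes loaded with FLIPR calcium dye for 60 min at 37° C in Tyrode's pH 7.35 with 2.5 mM probenecid, then preincubated 15 min with compounds. Channels were opened by 20 mM KCl final, and fluorescence was recorded for 5 min. Influx expressed as % control gave concentration-response IC50.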

HERG = biological target: T1, HERG (Homo sapiens, UniProt Q12809); test: HERG Patch Clamp EP (whole cell patch clamp, tail currents; single point at 10 μM and IC50); settings: for inhibition at 10 µM: human, HEK cells stably overexpressing HERG, single point at 10 μM, HERG in HEK cells, read-out: HERG % Inhib. @ 10 μM; for IC50: concentration response
T1 construct: expressed in transfected cells; host or cells: HEK cells
Description: The external solution is standard Tyrodes solution.

Kv1.5 = biological target: T2, Kv1.5 (Homo sapiens, UniProt P22460); test: Kv1.5 Patch Clamp EP (whole cell patch clamp; single point at 1 μM and IC50); settings: for inhibition at 1 µM: single point at 1.0 μM, Kv1.5 stably over expressed in HEK or LTK- cells; for IC50: concentration response
T2 construct: expressed in transfected cells; host or cells: HEK or LTK- cells
Experimental: The external solution is standard Tyrodes solution. […] Inhibition was measured at the end of the 1 second pulses and expressed relative to controls. Initial Kv1.5 inhibition is estimated by single point determinations done at 1 μM.

T1 sequence (Q12809 whole entry): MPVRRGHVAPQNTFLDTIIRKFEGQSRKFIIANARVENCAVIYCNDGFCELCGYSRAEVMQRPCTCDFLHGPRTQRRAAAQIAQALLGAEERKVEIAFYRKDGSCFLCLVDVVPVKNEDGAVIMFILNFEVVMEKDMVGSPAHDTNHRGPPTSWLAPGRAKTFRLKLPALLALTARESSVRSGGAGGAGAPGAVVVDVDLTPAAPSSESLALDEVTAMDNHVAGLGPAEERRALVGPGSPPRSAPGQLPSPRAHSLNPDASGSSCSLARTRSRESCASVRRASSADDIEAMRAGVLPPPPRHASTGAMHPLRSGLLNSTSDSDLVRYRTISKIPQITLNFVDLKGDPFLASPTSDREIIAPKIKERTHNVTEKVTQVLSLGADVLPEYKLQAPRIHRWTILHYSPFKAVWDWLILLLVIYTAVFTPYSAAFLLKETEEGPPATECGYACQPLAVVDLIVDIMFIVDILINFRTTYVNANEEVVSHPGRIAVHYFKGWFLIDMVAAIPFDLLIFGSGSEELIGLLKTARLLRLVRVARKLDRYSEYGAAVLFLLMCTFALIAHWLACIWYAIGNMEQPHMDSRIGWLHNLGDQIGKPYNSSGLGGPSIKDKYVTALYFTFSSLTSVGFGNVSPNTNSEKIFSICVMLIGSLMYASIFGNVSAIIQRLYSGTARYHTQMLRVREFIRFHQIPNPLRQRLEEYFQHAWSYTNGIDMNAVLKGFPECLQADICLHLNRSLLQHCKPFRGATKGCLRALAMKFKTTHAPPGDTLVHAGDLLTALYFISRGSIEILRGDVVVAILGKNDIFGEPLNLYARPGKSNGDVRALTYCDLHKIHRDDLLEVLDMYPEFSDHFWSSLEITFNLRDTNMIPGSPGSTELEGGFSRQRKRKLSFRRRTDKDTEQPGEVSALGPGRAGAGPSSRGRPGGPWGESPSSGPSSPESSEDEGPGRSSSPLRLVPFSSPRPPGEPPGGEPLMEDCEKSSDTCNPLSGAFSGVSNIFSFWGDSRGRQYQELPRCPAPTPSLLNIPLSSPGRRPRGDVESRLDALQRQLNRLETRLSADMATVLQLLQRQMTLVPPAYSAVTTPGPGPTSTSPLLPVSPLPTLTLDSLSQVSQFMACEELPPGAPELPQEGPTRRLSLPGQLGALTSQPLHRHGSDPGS
T2 sequence (P22460 whole entry): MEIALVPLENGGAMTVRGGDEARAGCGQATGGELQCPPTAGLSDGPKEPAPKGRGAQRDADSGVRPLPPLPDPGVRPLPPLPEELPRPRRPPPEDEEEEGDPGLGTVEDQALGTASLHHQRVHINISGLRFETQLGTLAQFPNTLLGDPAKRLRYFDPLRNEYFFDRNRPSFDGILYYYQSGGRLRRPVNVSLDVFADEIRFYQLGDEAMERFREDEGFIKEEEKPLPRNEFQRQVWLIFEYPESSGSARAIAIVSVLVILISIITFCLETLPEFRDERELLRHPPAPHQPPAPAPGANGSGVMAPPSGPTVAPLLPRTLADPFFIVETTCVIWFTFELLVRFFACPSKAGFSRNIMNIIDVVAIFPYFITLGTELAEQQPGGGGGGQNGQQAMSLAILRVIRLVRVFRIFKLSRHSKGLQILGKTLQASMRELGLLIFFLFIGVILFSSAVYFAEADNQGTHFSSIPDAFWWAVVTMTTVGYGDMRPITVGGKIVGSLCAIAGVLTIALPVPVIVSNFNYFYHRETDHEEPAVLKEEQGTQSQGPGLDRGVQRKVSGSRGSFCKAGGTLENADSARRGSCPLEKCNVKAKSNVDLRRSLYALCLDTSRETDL

| IC50 (L-type calcium channels) | inhibition at 1 µM (Kv1.5) | IC50 (Kv1.5) | Compound | inhibition at 10 µM (HERG) | IC50 (HERG) |
| --- | --- | --- | --- | --- | --- |
| 12 µM | 89% | – | CC(C)NC(=O)N1CCC2(CC1)C(=O)N(CCCc1ccccc1)C(c1ccc(C3CC3)cc1)N2C (stereo not drawn) [Compound 52, 2-(4-Cyclopropylphenyl)-1-methyl-4-oxo-3-(3-phenylpropyl)-1,3,8-triazaspiro-[4.5]decane-8-carboxylic acid isopropyl amide] | 79% | – |
| 4.5 µM | 93% | – | CN(C)C(=O)N1CCC2(CC1)C(=O)N(CCCc1ccccc1)C(c1ccc(C3CC3)cc1)N2C (stereo not drawn) [Compound 53, 2-(4-Cyclopropylphenyl)-1-methyl-4-oxo-3-(3-phenylpropyl)-1,3,8-triazaspiro-[4.5]decane-8-carboxylic acid dimethylamide] | 77% | – |
| 18 µM | 88% | 0.266 µM | CN1C(c2ccc(C3CC3)cc2)N(CCCc2ccccc2)C(=O)C12CCN(S(C)(=O)=O)CC2 (stereo not drawn) [Compound 54, 2-(4-Cyclopropylphenyl)-8-methanesulfonyl-1-methyl-3-(3-phenylpropyl)-1,3,8-triazaspiro-[4.5]decan-4-one] | 53% | 4.9 µM |
| 8 µM | 64% | – | COc1ccc(CCN2C(=O)C3(CCN(CC(N)=O)CC3)N(C)C2c2ccc(C3CC3)cc2)cc1 (stereo not drawn) [Compound 55, 2-{2-(4-Cyclopropylphenyl)-3-[2-(4-methoxyphenyl)ethyl]-1-methyl-4-oxo-1,3,8-triaza-spiro[4.5]dec-8-yl}acetamide] | 71% | – |
| 12 µM | 92% | 0.25 µM | COc1ccc(CCN2C(=O)C3(CCN(C(N)=O)CC3)N(C)C2Cc2ccc(C(C)(C)C)cc2)cc1 (stereo not drawn) [Compound 58, 2-(4-tert-Butylbenzyl)-3-[2-(4-methoxyphenyl)ethyl]-1-methyl-4-oxo-1,3,8-triazaspiro[4.5]decane-8-carboxylic acid amide] | 68% | 4.4 µM |
| 7.8 µM | 93% | 0.257 µM | COc1ccc(CCN2C(=O)C3(CCN(C(=O)OC(C)(C)C)CC3)NC2c2ccc(OC(F)F)cc2)cc1 (stereo not drawn) [Compound 62, 2-(4-Difluoromethoxyphenyl)-3-[2-(4-methoxyphenyl)ethyl]-4-oxo-1,3,8-triaza-spiro[4.5]decane-8-carboxylic acid tert-butyl ester] | 62% | 4.6 µM |
| 3 µM | 73% | – | COc1ccc(CCN2C(=O)C3(CCN(S(C)(=O)=O)CC3)NC2c2ccc(C(C)(C)C)cc2)cc1 (stereo not drawn) [Compound 63, 2-(4-tert-Butylphenyl)-8-methanesulfonyl-3-[2-(4-methoxyphenyl)ethyl]-1,3,8-triaza-spiro[4.5]decan-4-one] | 40% | – |
| 10 µM | 91% | – | COc1ccc(CCN2C(=O)C3(CCN(C(=NC#N)Oc4ccccc4)CC3)N(C)C2c2ccc(OC)cc2)cc1 (stereo not drawn) [Compound 67, 8-(phenyl-N-cyano-1-carbimidate)-2-(4-methoxyphenyl)-3-[2-(4-methoxyphenyl)ethyl]-1-methyl-1,3,8-triaza-spiro[4.5]decan-4-one] | 80% | – |
| 19 µM | 94% | – | COC(=O)N1CCC2(CC1)NC(c1ccc(C3CC3)cc1)N(CCc1ccc(OC)cc1)C2=O (stereo not drawn) [Compound 75, Methyl 2-(4-cyclopropylphenyl)-3-[2-(4-methoxyphenyl)ethyl]-4-oxo-1,3,8-triazaspiro[4.5]decane-8-carboxylate] | 2% | – |
| 19 µM | 74% | – | COc1ccc(CCN2C(=O)C3(CCN(C(=O)NN)CC3)N(C)C2c2ccc(C3CC3)cc2)cc1 (stereo not drawn) [Compound 80, 2-(4-cyclopropylphenyl)-3-[2-(4-methoxyphenyl)ethyl]-1-methyl-4-oxo-1,3,8-triazaspiro[4.5]decane-8-carbohydrazide] | 24% | – |
| 9 µM | 80% | – | CCCCC(=O)N1CCC2(CC1)C(=O)N(CCc1ccc(OC)cc1)C(c1ccc(OC(F)F)cc1)N2C (stereo not drawn) [Compound 81, 2-[4-(difluoromethoxy)phenyl]-3-[2-(4-methoxyphenyl)ethyl]-1-methyl-8-pentanoyl-1,3,8-triazaspiro[4.5]decan-4-one] | 95% | – |
| 7 µM | 88% | – | COc1ccc(CCN2C(=O)C3(CCN(C(=O)C4CCCC4)CC3)N(C)C2c2ccc(OC(F)F)cc2)cc1 (stereo not drawn) [Compound 82, 8-(cyclopentylcarbonyl)-2-[4-(difluoromethoxy)phenyl]-3-[2-(4-methoxyphenyl)ethyl]-1-methyl-1,3,8-triazaspiro[4.5]decan-4-one] | 90% | – |
| 6.8 µM | 93% | – | COc1ccc(CCN2C(=O)C3(CCN(C(=O)C4CC4)CC3)N(C)C2c2ccc(CC(C)C)cc2)cc1 (stereo not drawn) [Compound 83, 8-(cyclopropylcarbonyl)-2-(4-isobutylphenyl)-3-[2-(4-methoxyphenyl)ethyl]-1-methyl-1,3,8-triazaspiro[4.5]decan-4-one] | 84% | – |
| 6.7 µM | 85% | – | COc1ccc(CCN2C(=O)C3(CCN(C(=O)OC(C)(C)C)CC3)N(C)C2c2ccc(CC(C)C)cc2)cc1 (stereo not drawn) [Compound 85, tert-butyl 2-(4-isobutylphenyl)-3-[2-(4-methoxyphenyl)ethyl]-1-methyl-4-oxo-1,3,8-triazaspiro[4.5]decane-8-carboxylate] | 3% | – |
| 12 µM | 94% | 0.273 µM | COc1ccc(CCN2C(=O)C3(CCN(CC(=O)N(C)C)CC3)N(C)C2c2ccc(C3CC3)cc2)cc1 (stereo not drawn) [Compound 89, 2-{2-(4-cyclopropylphenyl)-3-[2-(4-methoxyphenyl)ethyl]-1-methyl-4-oxo-1,3,8-triazaspiro[4.5]dec-8-yl}-N,N-dimethylacetamide] | 43% | 12 µM |
| 13 µM | 87% | – | COc1ccc(CCN2C(=O)C3(CCN(C(=O)n4ccnc4)CC3)N(C)C2c2ccc(C3CC3)cc2)cc1 (stereo not drawn) [Compound 91, 2-(4-cyclopropylphenyl)-8-(1H-imidazol-1-ylcarbonyl) —3-[2-(4-methoxyphenyl)ethyl]-1-methyl-1,3,8-triazaspiro[4.5]decan-4-one] | 72% | – |
| 14 µM | 81% | – | COc1ccc(CCN2C(=O)C3(CCN(S(C)(=O)=O)CC3)N(C(=O)C(F)(F)F)C2c2ccc(C3CC3)cc2)cc1 (stereo not drawn) [Compound 92, 2-(4-cyclopropylphenyl)-3-[2-(4-methoxyphenyl)ethyl]-8-(methylsulfonyl)-1-(trifluoroacetyl)-1,3,8-triazaspiro[4.5]decan-4-one] | 73% | – |
| 12 µM | 96% | 0.393 µM | COc1ccc(CCN2C(=O)C3(CCN(C(=O)OC(C)(C)C)CC3)NC2Cc2ccc(C(C)(C)C)cc2)cc1 (stereo not drawn) [Compound 96, 2-(4-tert-butylbenzyl)-3-[2-(4-methyoxyphenyl)ethyl]-4-oxo-1,3,8-triaza-spiro[4.5]decane-8-carboxylic acid tert-butyl ester] | 12% | – |
